Test results taken from US9510592B2, “Pesticidal compositions and processes related thereto” (Dow AgroSciences LLC, priority 2012, dated 2016).
Read-outs that look alike come from different tables or passages of the source. Values belong to the molecule of their own block, whether it stands above or below them.

What was measured:
[1] = system: Beet Armyworm (Spodoptera exigua); assay: Bioassay on Beet Armyworm (BAW), 128-well diet tray assay; format: in vivo; conditions: Spodoptera exigua, 168 h, percent mortality of second instar larvae, 50 μg/cm^2 on artificial diet, five to seven days, 25° C., read-out: BAW Rating
How it was run: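 Second-instar larvae (one to five per well) were placed on artificial diet surface-treated with 50 μg/cm^2 compound in acetone-water and held at 25 °C, 14:10 light-dark, for five to seven days. Percent mortality was averaged over eight wells.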

[2] = system: Corn Earworm (Helicoverpa zea); assay: Bioassay on Corn Earworm (CEW), 128-well diet tray assay; format: in vivo; conditions: Helicoverpa zea, 168 h; percent mortality of second instar larvae, 50 μg/cm^2 on artificial diet, five to seven days, 25° C.; Table 3; read-out: CEW Rating
Procedure: (§1) Certain molecules disclosed in this document were tested against BAW and CEW and CL using procedures described in the following examples. In the reporting of the results, the “BAW & CEW & CL Rating Table” was used (See Table Section).
Bioassays On CEW (Helicoverpa zea)
Bioassays on CEW were conducted using a 128-well diet tray assay. one to five second instar CEW larvae were placed in each well (3 mL) of the diet tray that had been previously filled with 1 mL of artificial diet to which 50 μg/cm^2 of the test compound (dissolved in 50 μL of 90:10 acetone-water mixture) had been applied (to each of eight wells) and then allowed to dry. Trays were covered with a clear self-adhesive cover, and held at 25° C., 14:10 light-dark for five to seven days. Percent mortality was recorded for the larvae in each well; activity in the eight wells was then averaged. The results are indicated in the table entitled “Table 3: Assay Results” (See Table Section).

[3] = system: Green Peach Aphid (Myzus persicae); assay: Bioassay on Green Peach Aphid (GPA), foliar spray on cabbage seedlings; format: in vivo; conditions: 72 h, corrected % control (Abbott), 200 ppm spray on cabbage seedlings, three days
Procedure: Certain molecules disclosed in this document were tested against GPA using procedures described in the following example. In the reporting of the results, the “GPA Rating Table” was used (See Table Section). Cabbage seedlings grown in 3-inch pots, with 2-3 small (3-5 cm) true leaves, were used as test substrate. The seedlings were infested with 20-50 GPA (wingless adult and nymph stages) one day prior to chemical application. Four pots with individual seedlings were used for each treatment. Test compounds (2 mg) were dissolved in 2 mL of acetone/MeOH (1:1) solvent, forming stock solutions of 1000 ppm test compound. The stock solutions were diluted 5× with 0.025% Tween 20 in water to obtain the solution at 200 ppm test compound. A hand-held aspirator-type sprayer was used for spraying a solution to both sides of […] leaves until runoff. Reference plants (solvent check) were sprayed with the diluent only containing 20% by volume of acetone/MeOH (1:1) solvent. Treated plants were held in a holding room for three days at approximately 25° C. and ambient relative humidity (RH) prior to grading. Evaluation was conducted by counting the number of live aphids per plant under a microscope. Percent Control was measured by using Abbott's correction formula (W. S. Abbott, “A Method of Computing the Effectiveness of an Insecticide” J. Econ. Entomol. 18 (1925), pp. 265-267) as follows. Corrected % Control=100*(X−Y)/X • where • X=No. of live aphids on solvent check plants and • Y=No. of live aphids on treated plants The results are indicated in the table entitled “Table 3: Assay Results” (See Table Section).

[4] = system: Cabbage Looper (Trichoplusia ni); assay: Bioassay on Cabbage Looper (CL), 128-well diet tray assay; format: in vivo; conditions: percent mortality of second instar larvae, 50 μg/cm^2 on artificial diet, five to seven days, 25° C.; Table 3A
Procedure: as §1
Bioassays on CL (Trichoplusia ni)
Bioassays on CL were conducted using a 128-well diet tray assay. One to five second instar CL larvae were placed in each well (3 mL) of the diet tray that had been previously filled with 1 mL of artificial diet to which 50 μg/cm^2 of the test compound (dissolved in […] of 90:10 acetone-water mixture) had been applied (to each of eight wells) and then allowed to dry. Trays were covered with a clear self-adhesive cover, and held at 25° C., 14:10 light-dark for five to seven days. Percent mortality was recorded for the larvae in each well; activity in the eight wells was then averaged. The results are indicated in the table entitled “Table 3A: Assay Results” (See Table Section).

melting point: 110 to 112 °C
SMILES: NC(=O)c1ccc(/C=C/C(c2cc(Cl)cc(Cl)c2)C(F)(F)F)cc1 (stereo not shown) [AC2]

SMILES: Cc1cc(/C=C/C(c2cc(Cl)cc(Cl)c2)C(F)(F)F)ccc1C(=O)NC(C)c1ccc(Cl)nc1 (stereo not shown) [AC44]
pest or weed control at 50 µg/cm2, 50 µg/cm2 ([1]; Table 3): 50 to 100%
pest or weed control at 50 µg/cm2 [2]: 50 to 100%
pest or weed control at 200 ppm ([3]; Table 3, read-out: GPA Rating): 0 to 80%

SMILES: O=C(CNC(=O)c1ccc(/C=C/C(c2cc(Cl)cc(Cl)c2)C(F)(F)F)cc1Cl)NCC(F)(F)F (stereo not shown) [AC57]
pest or weed control at 50 µg/cm2, 50 µg/cm2 ([1]; Table 3): 50 to 100%
pest or weed control at 50 µg/cm2 [2]: 50 to 100%
pest or weed control at 200 ppm ([3]; Table 3, read-out: GPA Rating): 0 to 80%

SMILES: Cc1cc(/C=C/C(c2cc(Cl)cc(Cl)c2)C(F)(F)F)cnc1C(=O)NCc1ccc(Cl)nc1 (stereo not shown) [AC60]
pest or weed control at 50 µg/cm2, 50 µg/cm2 ([1]; Table 3): 50 to 100%
pest or weed control at 50 µg/cm2 [2]: 50 to 100%
pest or weed control at 200 ppm ([3]; Table 3, read-out: GPA Rating): 0 to 80%

SMILES: Cc1cc(/C=C/C(c2cc(Cl)cc(Cl)c2)C(F)(F)F)ccc1C(=O)N[C@H]1C[S@@+]([O-])C1 (stereo partly shown) [AC82]
pest or weed control at 50 µg/cm2, 50 µg/cm2 ([1]; Table 3): 50 to 100%
pest or weed control at 50 µg/cm2 [2]: 50 to 100%
pest or weed control at 200 ppm ([3]; Table 3, read-out: GPA Rating): 0 to 80%

SMILES: O=C(CC(F)(F)F)NC1CCc2cc(/C=C/C(c3cc(Cl)c(Cl)c(Cl)c3)C(F)(F)F)ccc21 (stereo not shown) [BC4, (E)-3,3,3-Trifluoro-N-(5-(4,4,4-trifluoro-3-(3,4,5-trichlorophenyl)but-1-enyl)-2,3-dihydro-1H-inden-1-yl)propanamide]
pest or weed control at 50 µg/cm2, 50 µg/cm2 ([1]; Table 3): 50 to 100%
pest or weed control at 50 µg/cm2 [2]: 50 to 100%
pest or weed control at 200 ppm ([3]; Table 3, read-out: GPA Rating): 0 to 80%

SMILES: O=C(CC(F)(F)F)NCc1ccc(/C=C/C(c2cc(Cl)c(Cl)c(Cl)c2)C(F)(F)F)cc1Cl (stereo not shown) [CC10]
pest or weed control at 50 µg/cm2, 50 µg/cm2 ([1]; Table 3): 50 to 100%
pest or weed control at 50 µg/cm2 [2]: 50 to 100%
pest or weed control at 200 ppm ([3]; Table 3, read-out: GPA Rating): 0 to 80%

SMILES: O=C(NCc1ccc(/C=C/C(c2cc(Cl)c(Cl)c(Cl)c2)C(F)(F)F)cc1)c1ccnc(Cl)c1 (stereo not shown) [CC13]
pest or weed control at 50 µg/cm2, 50 µg/cm2 ([1]; Table 3): 50 to 100%
pest or weed control at 50 µg/cm2 [2]: 50 to 100%
pest or weed control at 200 ppm ([3]; Table 3, read-out: GPA Rating): 0 to 80%

SMILES: O=C(CC(F)(F)F)NCc1ccc(/C=C/C(c2cc(Cl)c(F)c(Cl)c2)C(F)(F)F)cc1 (stereo not shown) [CC16]
pest or weed control at 50 µg/cm2, 50 µg/cm2 ([1]; Table 3): 50 to 100%
pest or weed control at 50 µg/cm2 [2]: 50 to 100%
pest or weed control at 200 ppm ([3]; Table 3, read-out: GPA Rating): 0 to 80%

SMILES: O=C(CC(F)(F)F)NNC(=O)c1ccc(/C=C/C(c2cc(Cl)c(Cl)c(Cl)c2)C(F)(F)F)cc1Br (stereo not shown) [Compound F1]
CL Rating [4]: A (50-100)
pest or weed control at 50 µg/cm2, 50 µg/cm2 ([1]; Table 3A): 50 to 100%

SMILES: CCC(=O)NNC(=O)c1ccc(/C=C/C(c2cc(Cl)c(Cl)c(Cl)c2)C(F)(F)F)cc1Br (stereo not shown) [Compound F8]
CL Rating [4]: A (50-100)
pest or weed control at 50 µg/cm2, 50 µg/cm2 ([1]; Table 3A): 50 to 100%

SMILES: CCC(=O)N(C)NC(=O)c1ccc(/C=C/C(c2cc(Cl)c(Cl)c(Cl)c2)C(F)(F)F)cc1Br (stereo not shown) [Compound F11, (E)-2-Bromo-N′-methyl-N′-propionyl-4-(4,4,4-trifluoro-3-(3,4,5-trichlorophenyl)but-1-en-1-yl)benzohydrazide]
CL Rating [4]: A (50-100)
pest or weed control at 50 µg/cm2, 50 µg/cm2 ([1]; Table 3A): 50 to 100%

SMILES: O=C(NCCNC(=O)C(F)(F)F)c1ccc(/C=C/C(c2cc(Cl)c(Cl)c(Cl)c2)C(F)(F)F)cc1Br (stereo not shown) [Compound F33]
CL Rating [4]: A (50-100)
pest or weed control at 50 µg/cm2, 50 µg/cm2 ([1]; Table 3A): 50 to 100%
pest or weed control at 200 ppm ([3]; Table 3A, read-out: GPA Rating): 0 to 80%

SMILES: N#Cc1cc(/C=C/C(c2ccc(Cl)c(Cl)c2)C(F)(F)F)ccc1-n1cncn1 (stereo not shown) [DC28]
pest or weed control at 50 µg/cm2, 50 µg/cm2 ([1]; Table 3): 50 to 100%
pest or weed control at 50 µg/cm2 [2]: 50 to 100%
pest or weed control at 200 ppm ([3]; Table 3, read-out: GPA Rating): 0 to 80%

SMILES: N#Cc1cc(/C=C/C(c2cc(Cl)c(Cl)c(Cl)c2)C(F)(F)F)ccc1-n1cncn1 (stereo not shown) [DC31]
pest or weed control at 50 µg/cm2, 50 µg/cm2 ([1]; Table 3): 50 to 100%
pest or weed control at 50 µg/cm2 [2]: 50 to 100%
pest or weed control at 200 ppm ([3]; Table 3, read-out: GPA Rating): 0 to 80%
